The values that follow come from patent US20040023945A1, “CYCLIC AMP-SPECIFIC PHOSPHODIESTERASE INHIBITORS” (ICOS Corporation, priority 1999, published 2004).

Data set [1] is described as follows: Mouse locomotor activity assay (decrease in spontaneous mobility). The note with it: female, Balb/c, in vivo. The procedure:
The purpose of this study was to determine the efficacy of PDE4 inhibitors in vivo in an LPS mouse model together with a determination with respect to central nervous system (CNS) side-effects manifested by a decrease in spontaneous mobility.
The test animals were female Balb/c mice, having an average weight of about 20 g. The PDE4 inhibitors, formulated in 30% Cremophor® EL, were administered via intraperitoneal (i.p.) injections at doses of 0.1, 1.0, 10.0, and 100 mg/kg. Individual dose volumes (about 150 μL) were adjusted based on the body weights measured. One hour later, 5 mg/kg LPS in a final volume of 200 μL was injected via the tail vein to each animal. Ninety minutes following the LPS treatment, the animals were bled and serum samples were collected before being stored at −70° C. until assayed.
Movement of the X-Y plane, or rearing up on the hind legs, was quantified by counting the number of “light-beam” crosses per unit of time. A decrease in the number of activity events is directly proportional to the mobility or immobilization of the animal. The quantitative scoring correlated well with the subjective measurements described above.

The test system of data set [2] is serum TNFα levels in LPS-injected mice. In words: Inhibition of serum TNFα levels in LPS-injected mice (Mouse/TNFα ED50). The data set is classed as in vivo. The note with it: Mus musculus. The procedure:
In order to assess the ability of a compound to reduce serum TNFα levels in mammals, the following protocol was employed. […] Accordingly, in vivo efficacy of a PDE4 reducing compound was shown by dosing with compound and measuring reduction of serum TNFα levels in LPS-injected mice. Female C3H mice, 20-25 gm body weight, were fasted overnight and dosed intraperitoneally with test compound in appropriate vehicle 60 minutes before LPS injection. Five μg of LPS was then injected intraperitoneally into the mice. Ninety minutes after LPS injection, mice were bled from the heart. Blood was allowed to clot overnight at 4° C. Samples were centrifuged for 10 minutes in a microcentrifuge and the serum removed and stored at −20° C. until analysis. Serum levels of TNFα were subsequently measured using a commercially available ELISA kit (Genzyme) following the protocol enclosed in the kit. The percent of inhibition of serum TNFα levels caused by the compound was determined relative to serum TNFα levels in control mice receiving vehicle alone. […]

In data set [3] the test system is human peripheral blood lymphocytes. In words: Lipopolysaccharide-stimulated TNFα release from human peripheral blood lymphocytes. The data set is classed as cell-based. The note with it: Homo sapiens, Lymphocyte. The procedure: The compounds of structural formula (II) also were tested for an ability to reduce TNFα secretion in human peripheral blood lymphocytes. The ability to reduce TNFα secretion is related to the EC50 values (i.e., the effective concentration of the compound capable of inhibiting 50% of the total TNFα).
To assess the ability of a compound to reduce TNFα secretion in human peripheral blood lymphocytes (PBL), the following tests were performed.
Heparinized blood (approximately 30 mL) drawn from human volunteers was mixed 1:1 with Dulbecco's modified phosphate-buffered saline. This mixture was mixed 1:1 with HISTOPAQUE® and centrifuged at 1,500 rpm at room temperature without braking in the swinging bucket of a Beckman model TJ6 centrifuge. Erythrocytes were centrifuged to the bottom of the tubes, and serum remained at the surface of the tubes. A layer containing lymphocytes sedimented between the serum and HISTOPAQUE® layers, and was removed by aspiration to a fresh tube. The cells were quantified and adjusted to 3×10^6 cells/mL and a 100 μL aliquot is placed into the wells of a 96 well plate. Test compounds and RPMI media (Gibco/BRL Life Sciences) are added to each of the wells 15 minutes prior to addition of bacterial LPS ([…]). The mixture was allowed to incubate for 20 hours at 37° C. in a humidified chamber. The cells then were separated by centrifuging at 800 rpm for 5 minutes at room temperature. An aliquot of 180 μL of supernatant was transferred to a new plate for determination of TNFα concentration. TNFα protein in the cell supernatant fluids was measured using a commercially available enzyme-linked immunosorbent assay (ELISA) (CYTOSCREEN® Immunoassay Kit from Biosource International).
The cell-based assay provided the following results for various pyrrolidine compounds of the present invention. The EC50 values (i.e., effective concentration of the compound capable of inhibiting 50% of the total TNFα) illustrate the ability of the present compounds to inhibit LPS-stimulated TNFα release from human PBL.

For data set [4] the following is noted: A. Robichaud et al., Neuropharmacology 1999; cited from earlier work.
For another data set, the system named is recombinant human PDE4. The note with it: background, prior art; read-out: reported IC50 with respect to recombinant human PDE4; cited from earlier work.
For another data set, the target named is T1, human recombinant PDE4B (Homo sapiens, UniProt Q07343).
T1 construct: made in house; host or cells: Saccharomyces cerevisiae strain YI23 harboring HDUN2.32
T1 sequence (Q07343 whole entry): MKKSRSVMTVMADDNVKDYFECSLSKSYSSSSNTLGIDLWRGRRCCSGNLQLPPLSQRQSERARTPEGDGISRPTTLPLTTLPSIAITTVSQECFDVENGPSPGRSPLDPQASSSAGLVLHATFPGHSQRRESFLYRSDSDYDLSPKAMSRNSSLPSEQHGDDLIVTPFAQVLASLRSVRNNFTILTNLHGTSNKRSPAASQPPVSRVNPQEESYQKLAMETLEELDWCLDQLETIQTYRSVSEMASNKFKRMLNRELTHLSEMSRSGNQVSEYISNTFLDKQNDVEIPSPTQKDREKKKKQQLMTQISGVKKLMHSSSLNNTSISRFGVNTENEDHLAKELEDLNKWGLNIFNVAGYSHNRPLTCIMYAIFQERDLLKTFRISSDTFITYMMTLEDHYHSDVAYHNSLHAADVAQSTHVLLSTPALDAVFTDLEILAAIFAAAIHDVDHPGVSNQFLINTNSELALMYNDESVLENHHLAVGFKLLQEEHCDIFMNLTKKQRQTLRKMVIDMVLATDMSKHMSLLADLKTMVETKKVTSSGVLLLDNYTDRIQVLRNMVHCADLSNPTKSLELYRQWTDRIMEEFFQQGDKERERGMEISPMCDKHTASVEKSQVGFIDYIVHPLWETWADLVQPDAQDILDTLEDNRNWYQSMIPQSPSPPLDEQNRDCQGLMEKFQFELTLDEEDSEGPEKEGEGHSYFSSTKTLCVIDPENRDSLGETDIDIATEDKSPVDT
In words: Inhibition of human recombinant PDE4B. It is filed as biochemical. Particulars: read-out: PDE4B IC50.

Setting [5] is: intraperitoneal, read-out: Mouse Inhibition of Spontaneous Mobility ED50.
[6] abbreviates: read-out: Mouse LPS Challenge ED50.

SMILES strings stand for the structures. Like-named read-outs stand apart in the source and are kept apart here. Where only a bound is given, the exact number is not on record here.

On to `COc1ccc([C@@H]2CN(c3ccccn3)C[C@@]2(C)[C@@H](C)O)cc1OC1Cc2ccccc2C1` [Example 31, (1R)-1-[(3S,4S)-4-(3-Indan-2-yloxy-4-methoxyphenyl)-3-methyl-1-(2-pyridyl)pyrrolidin-3-yl]ethan-1-ol], for which the ED50 was 83 mg/kg in data set [1] (ip, read-out: ED50, effective dose that decreases spontaneous mobility 50% of control) and 3 mg/kg in data set [2] (mouse, i.p., LPS challenge, read-out: Mouse/TNFα ED50). Also, the EC50 in data set [3] (LPS-stimulated TNFα release from human PBL, read-out: PBL/TNFα EC50) worked out at 35 nM.
For the molecule `COc1ccc([C@@H]2CNC(=O)C2)cc1OC1CCCC1` [R-rolipram], the “emetic potency relative to the (+)-enantiomer (S-rolipram)” value in data set [4] was “about ten-fold”.
As a reminder, the IC50 is the concentration needed to halve the response being measured. Regarding `COC(=O)N1CC(c2ccc(OC)c(OC3CCCC3)c2)C(C)(C(C)=O)C1` (stereo not drawn) [formula (I)], in the data set with recombinant human PDE4, the IC50 is about 2 nM.
As to `COc1ccc([C@@H]2CN(C(=O)C(O)c3ccccc3)C[C@@]2(C)[C@@H](C)O)cc1OCC1CC1` (stereo partly drawn) [Example 195, 1-{3-((1R)-1-Hydroxyethyl)(3S,4S)-4-[3-(cyclopropyl-methoxy)-4-methoxyphenyl]-3-methylpyrrolidinyl}-2-hydroxy-2-phenylethan-1-one], the IC50 on human recombinant PDE4B stood at 7 nM. Moreover, the ED50 is 100 mg/kg in data set [1] (setting [5]) and 9 mg/kg in data set [2] (setting [6]). For the same molecule, in data set [3] (read-out: Cell based EC50), the EC50 came out at 30 nM.
Consider `COc1ccc([C@@H]2CN(C(=O)[C@H](N)CO)C[C@@]2(C)[C@@H](C)O)cc1OCC1CC1.Cl` [Example 109, hydrochloride], for which the IC50 at human recombinant PDE4B was 20 nM. The EC50 in data set [3] (read-out: Cell based EC50) worked out at 30 nM.
In the case of `COc1ccc([C@@H]2CN(C(=O)[C@@H](O)Cc3ccccc3)C[C@@]2(C)[C@@H](C)O)cc1OCC#Cc1ccccc1` [Example 268, (S)-2-Hydroxy-1-{(3S,4S)-3-((R)-1-hydroxyethyl)-4-[4-methoxy-3-(3-phenylprop-2-ynyloxy)phenyl]-3-methylpyrrolidin-1-yl}-3-phenylpropan-1-one], the IC50 at human recombinant PDE4B worked out at 15 nM. Besides, the values for the ED50 in data set [1] (setting [5]) and in data set [2] (setting [6]) were 100 mg/kg and 5 mg/kg, respectively. The EC50 in data set [3] (read-out: Cell based EC50) came to 6 nM.
Regarding `CCCC(O)C(=O)N1C[C@@H](c2ccc(OC)c(OCC3CC3)c2)[C@](C)([C@@H](C)O)C1` (stereo partly drawn) [Example 101, 1-{(3S,4S)-3-((1R)-1-Hydroxyethyl)-4-[3-(cyclopropylmethoxy)-4-methoxyphenyl]-3-methylpyrrolidinyl)-2-hydroxypentan-1-one], the IC50 on human recombinant PDE4B was 11 nM. Further, the ED50 in data set [1] (setting [5]) was 100 mg/kg; in data set [2] (setting [6]), 3 mg/kg. Also, the EC50 in data set [3] (read-out: Cell based EC50) was 30 nM.
As for `COc1ccc(C2CNC(=O)C2)cc1OC1CCCC1` (stereo not drawn) [Rolipram, rolipram], the IC50 in the data set with recombinant human PDE4 is about 200 nM.
Turning to `COc1ccc([C@@H]2CN(C(=O)[C@@H](O)CO)C[C@@]2(C)[C@@H](C)O)cc1OCC#Cc1ccccc1` [Example 264, (S)-2,3-Dihydroxy-1-{(3S,4S)-3-((R)-1-hydroxyethyl)-4-[4-methoxy-3-(3-phenylprop-2-ynyloxy)phenyl]-3-methylpyrrolidin-1-yl}propan-1-one], the IC50 on human recombinant PDE4B amounted to 3 nM. Further, the ED50 in data set [1] (setting [5]) was under 100 mg/kg; in data set [2] (setting [6]), 1 mg/kg. Besides, the EC50 in data set [3] (read-out: Cell based EC50) turned out to be 10 nM.
